In the experiment the target is T1, Purified 12-lipoxygenase (porcine leukocyte) (Sus scrofa, UniProt P16469).
T1 construct: purchased Biomol Research labs Inc, Plymouth Meeting, Pa
T1 sequence (P16469 1-663): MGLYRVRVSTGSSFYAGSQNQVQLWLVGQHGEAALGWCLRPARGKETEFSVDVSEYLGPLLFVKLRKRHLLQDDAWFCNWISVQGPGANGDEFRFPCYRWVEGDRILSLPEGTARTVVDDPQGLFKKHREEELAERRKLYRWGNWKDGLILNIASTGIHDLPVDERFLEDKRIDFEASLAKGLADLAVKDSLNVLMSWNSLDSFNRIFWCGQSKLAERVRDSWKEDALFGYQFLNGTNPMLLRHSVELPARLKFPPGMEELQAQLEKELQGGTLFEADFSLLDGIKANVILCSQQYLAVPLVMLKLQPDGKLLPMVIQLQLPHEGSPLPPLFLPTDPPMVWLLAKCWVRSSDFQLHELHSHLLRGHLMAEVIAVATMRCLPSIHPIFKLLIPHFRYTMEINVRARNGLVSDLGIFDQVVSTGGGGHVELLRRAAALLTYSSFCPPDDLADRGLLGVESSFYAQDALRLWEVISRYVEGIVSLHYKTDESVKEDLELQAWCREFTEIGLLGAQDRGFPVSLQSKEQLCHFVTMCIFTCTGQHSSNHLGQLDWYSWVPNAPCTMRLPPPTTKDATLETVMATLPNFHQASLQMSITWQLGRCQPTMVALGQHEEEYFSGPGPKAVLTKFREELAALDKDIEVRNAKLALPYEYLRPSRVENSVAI
Nature of the experiment: Pure 12-lipoxygenase activity with [14C]-arachidonic acid (thin layer chromatography). It counts as biochemical. The settings on record: 10 units enzyme, [14C]-arachidonic acid 25 μM, 30 min, 37° C. How it is done:
Referring to FIG. 6, HT4 cells were subjected to glutamate treatment for 2 h. […] Purified 12-lipoxygenase (porcine leukocyte; 10 units) was incubated with [^14C]-arachidonic acid (25 μM) for 30 min at 37° C. Arachidonic acid and 12-HETE were resolved using thin layer chromatography as described in Materials & Methods We observed that in HT4 cells, treatment with glutamate mobilized cytosolic 12-LOX protein to the cell membrane (FIGS. 6A&B).
12-Lipoxygenase activity. To investigate whether tocotrienol directly affect the activity of 12-LOX (12-LOX), 10 units of 12-LOX (Biomol Research labs Inc, Plymouth Meeting, Pa.) was incubated at room temperature for 15 min with or without tocotrienol as indicated in the respective figure legend. The reaction mixture contained 50 mM Tris HCl, pH 7.4 and 1 mM EDTA. After 15 min, the reaction was initiated by adding 25 μM [1-^14C]-arachidonic acid per sample. Samples were kept at 37° C. for 30 minutes. The reaction was terminated by adding 200 μl of ice-cold stop solution containing diethyl ether, methanol and 1 M citric acid at a ratio of 30:4:1 by volume. After mixing, samples were centrifuged and the ethereal extracts were spotted on a silica gel thin layer plate. […] Distribution of radioactivity of the substrate and products on the plate were quantified using a imaging analyzer.

Molecules are shown by their SMILES.

`CC(C)=CCC/C(C)=C/CC/C(C)=C/CC[C@]1(C)CCc2c(C)c(O)c(C)c(C)c2O1` [α-tocotrienol]: the “inhibition of pure 12-lipoxygenase activity” value is on record as “dose-dependently inhibited”.

(Values after patent publication US20050228041A1, “Protective and therapeutic uses for tocotrienols” (priority 2003, published 2005).)
